The text below walks through data of patent US9725442B2, “Heterocyclic derivative having PGD2 receptor antagonist activity” (Shionogi & Co., Ltd., priority 2011, dated 2017).

One assay addresses CRTH2 (Homo sapiens (Human), UniProt Q9Y5Y4). Nature of the assay: CRTH2 receptor binding inhibitory activity ([3H]-PGD2 displacement, membranes of CRTH2-expressing K562 cell). The note with it: [3H]-PGD2 displacement, membrane of CRTH2-expressing K562 cell, read-out: Ki. Summed up:
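Incubation ran 60 min at room temperature using 20 μg/well membrane from CRTH2-expressing K562 cells in pH 7.4 Tris/HCl (50 mM) with 10 mM MgCl2.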

Another assay concerns the target Human DP1 receptor (Homo sapiens (Human), UniProt Q13258). The assay is described as follows: Human DP1 inhibitory activity in DP1-expressing cell (PGD2-induced cAMP). The note with it: category of cAMP IC50, human DP1 receptor expressing Jurkut cell. It is filed as cell-based. Here is the method:
Compounds were categorized as AA (cAMP is less than 100 nM) and A (cAMP is more than 100 nM and less than 5000 nM) as shown in Table 99 and 100.

Where [1] appears, read: CRTH2 receptor binding, categorized AAAA/AAA.

Read-outs that look alike come from different tables or passages of the source. Some results are limits rather than exact numbers.

Chain of Human DP1 receptor (Q13258 whole entry): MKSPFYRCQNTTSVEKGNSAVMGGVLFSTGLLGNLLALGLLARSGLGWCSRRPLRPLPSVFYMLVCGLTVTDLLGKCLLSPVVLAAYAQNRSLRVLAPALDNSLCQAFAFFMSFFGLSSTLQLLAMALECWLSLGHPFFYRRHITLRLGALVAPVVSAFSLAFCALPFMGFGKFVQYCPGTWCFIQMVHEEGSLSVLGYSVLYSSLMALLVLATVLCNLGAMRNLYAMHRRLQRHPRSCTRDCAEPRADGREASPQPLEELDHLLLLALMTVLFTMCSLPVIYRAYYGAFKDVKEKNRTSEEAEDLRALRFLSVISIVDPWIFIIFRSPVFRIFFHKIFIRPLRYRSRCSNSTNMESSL
Chain of CRTH2 (Q9Y5Y4 whole entry): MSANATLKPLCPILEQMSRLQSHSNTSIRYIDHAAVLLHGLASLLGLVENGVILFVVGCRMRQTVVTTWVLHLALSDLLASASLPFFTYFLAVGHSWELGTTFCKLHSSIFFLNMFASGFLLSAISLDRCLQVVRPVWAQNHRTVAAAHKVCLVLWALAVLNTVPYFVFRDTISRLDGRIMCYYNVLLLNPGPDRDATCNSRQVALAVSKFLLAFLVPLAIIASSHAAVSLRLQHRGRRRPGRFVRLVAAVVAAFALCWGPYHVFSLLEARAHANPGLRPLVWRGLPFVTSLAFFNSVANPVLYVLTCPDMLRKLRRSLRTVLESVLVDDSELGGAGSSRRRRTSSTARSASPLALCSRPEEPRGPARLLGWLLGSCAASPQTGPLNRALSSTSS

In general, Ki refers to the equilibrium dissociation constant of an inhibitor or competing ligand from its target. In general, IC50 refers to the concentration at which inhibition is half-maximal. High values mean weaker potency, low ones greater potency. Regarding `COc1ccc(S(=O)(=O)N2C[C@@H](C)[C@@H](n3nc(CC(=O)O)c4ccccc43)C2)cn1` [Compound I-240], the Ki on CRTH2 (setting [1]) is less than 0.1 µM. For the same compound, the IC50 on Human DP1 receptor lay within 0.1 to 5 µM.

As for `COc1ccc(S(=O)(=O)N2C[C@@H](C)[C@@H](n3nc(CC(=O)O)c4ccccc43)C2)cc1` [Compound I-241], the Ki at CRTH2 (setting [1]) was less than 0.1 µM. Further, the half-maximal inhibitory concentration (IC50) against Human DP1 receptor was less than 0.1 µM.

In the case of `C[C@@H]1CN(S(=O)(=O)c2ccc(OC(F)(F)F)cc2)C[C@@H]1n1nc(CC(=O)O)c2ccccc21` [Compound I-242], the Ki at CRTH2 (setting [1]) is less than 0.1 µM. The compound further showed an IC50 against Human DP1 receptor of less than 0.1 µM.

`CCc1ccc(S(=O)(=O)N2C[C@@H](C)[C@@H](n3nc(CC(=O)O)c4ccccc43)C2)cc1` [Compound I-243]: on CRTH2 (setting [1]), the inhibition constant Ki is 0.1 to 5 µM. Besides, the IC50 at Human DP1 receptor was less than 0.1 µM.

As for `COc1ccc(S(=O)(=O)N2C[C@@H](C)[C@@H](n3nc(CC(=O)O)c4ccccc43)C2)c(F)c1` [Compound I-244], on CRTH2 (setting [1]), the Ki was less than 0.1 µM. The IC50 against Human DP1 receptor is less than 0.1 µM.

As for `COc1ccc(S(=O)(=O)N2C[C@@H](C)[C@@H](n3nc(CC(=O)O)c4ccccc43)C2)nc1` [Compound I-246], the Ki at CRTH2 (setting [1]) was less than 0.1 µM. The same compound had an IC50 on Human DP1 receptor of 0.1 to 5 µM.

Regarding `CCOc1ccc(S(=O)(=O)N2C[C@@H](C)[C@@H](n3nc(CC(=O)O)c4ccccc43)C2)nc1` [Compound I-247], the Ki on CRTH2 (setting [1]) is less than 0.1 µM; at CRTH2, 0.015 µM. The compound further showed an IC50 against Human DP1 receptor of 0.1 to 5 µM.

Turning to `CC(C)Oc1ccc(S(=O)(=O)N2C[C@@H](C)[C@@H](n3nc(CC(=O)O)c4ccccc43)C2)nc1` [Compound I-248], the Ki at CRTH2 (setting [1]) is less than 0.1 µM. Further, the IC50 at Human DP1 receptor was in the range of 0.1 to 5 µM.

Take `Cc1ccc2c(CC(=O)O)nn([C@H]3CN(S(=O)(=O)C4CC4C(C)C)C[C@H]3C)c2c1` (stereo partly shown) [Compound I-249]: the Ki at CRTH2 (setting [1]) was less than 0.1 µM. The compound also returned an IC50 against Human DP1 receptor of 0.1 to 5 µM.

As to `Cc1cccc2c1c(CC(=O)O)nn2[C@H]1CN(S(=O)(=O)c2ccc(OC(C)C)cc2)C[C@H]1C` [Compound I-250], the Ki at CRTH2 (setting [1]) lay within 0.1 to 5 µM. Further, at Human DP1 receptor, the IC50 was less than 0.1 µM.

Consider `C[C@@H]1CN(S(=O)(=O)c2ccc(OC(F)F)cc2)C[C@@H]1n1nc(CC(=O)O)c2cc(F)ccc21` [Compound I-251], for which the Ki at CRTH2 (setting [1]) is less than 0.1 µM. The IC50 against Human DP1 receptor was less than 0.1 µM.

On to `CCOc1ccc(S(=O)(=O)N2C[C@@H](C)[C@@H](n3nc(CC(=O)O)c4cc(F)ccc43)C2)cc1` [Compound I-252], for which, at CRTH2 (setting [1]), the Ki is less than 0.1 µM. Also, at Human DP1 receptor, the IC50 is less than 0.1 µM.

In the case of `COCCOCCOc1ccc(S(=O)(=O)N2C[C@@H](C)[C@@H](n3nc(CC(=O)O)c4ccccc43)C2)cc1` [Compound I-253], at CRTH2 (setting [1]), the Ki lay within 0.1 to 5 µM. On Human DP1 receptor, this compound displayed a half-inhibitory concentration (IC50) of 0.1 to 5 µM.

Consider `CCOc1ccc(S(=O)(=O)N2C[C@@H](C)[C@@H](n3nc(CC(=O)O)c4ccccc43)C2)c(CF)c1` [Compound I-258], for which, on CRTH2 (setting [1]), the Ki is less than 0.1 µM. For the same compound, the IC50 against Human DP1 receptor was less than 0.1 µM.

For the compound `CCOc1ccc(S(=O)(=O)N2C[C@@H](C)[C@@H](n3nc(CC(=O)O)c4ccccc43)C2)c(CNC(C)=O)c1` [Compound I-259], the Ki at CRTH2 (setting [1]) was less than 0.1 µM. The compound also registered an IC50 against Human DP1 receptor of 0.1 to 5 µM.

`CCOc1ccc(S(=O)(=O)N2C[C@@H](C)[C@@H](n3nc(CC(=O)O)c4ccccc43)C2)c(CCCNC(C)=O)c1` [Compound I-260]: the results for the Ki at CRTH2 (setting [1]) and on CRTH2 were less than 0.1 µM and 0.021 µM, respectively. Further, the IC50 at Human DP1 receptor was 0.1 to 5 µM.

On to `CCOc1ccc(S(=O)(=O)N2C[C@@H](C)[C@@H](n3nc(CC(=O)O)c4ccccc43)C2)c(OC)c1` [Compound I-261], for which, on CRTH2 (setting [1]), the Ki is 0.1 to 5 µM. The compound also returned an IC50 at Human DP1 receptor of 0.1 to 5 µM.

For `CC(C)Oc1ccc(S(=O)(=O)N2C[C@@H](C)[C@@H](n3nc(CC(=O)O)c4cc(C#N)ccc43)C2)cc1` [Compound I-262], the Ki at CRTH2 (setting [1]) is 0.1 to 5 µM. Besides, the half-inhibitory concentration (IC50) against Human DP1 receptor was less than 0.1 µM.

As to `CC(C)Oc1ccc(S(=O)(=O)N2C[C@@H](C)[C@@H](n3nc(CC(=O)O)c4c(F)cccc43)C2)cc1` [Compound I-263], the Ki at CRTH2 (setting [1]) is less than 0.1 µM. For the same compound, the IC50 against Human DP1 receptor is less than 0.1 µM.
